The results in this text go back to patent US12479818B2, “Treatment of fibrosis with IRE1 small molecule inhibitors” (Cornell University, priority 2019, dated 2025).

Some results are limits rather than exact numbers.

The test system of one data set is 293T cells. Kind of data set: Growth assay (cytotoxicity). Type of data set: cell-based, human. The conditions noted are these: 2 day incubation. As to the method:
A growth assay was performed to evaluate the compounds disclosed herein for cytotoxicity. […] 133.3 uL cDMEM was added to wells 1, 2, 3, 5, 6, and 7 in rows A, C, E and G of the dilution plate. Compounds were serially diluted leftwards in threefold dilutions (66.7 uL into 133.3 uL cDMEM). 20 μL of each dilution was transferred in duplicate (duplicates in vertical paired wells) to the cells plated in the 96-well plate shown in Table 5, to the total concentrations shown below. 200 uL cDMEM was added to media wells (wells G5-H8). The plate was then placed in a humidified chamber for a 2 day incubation, and then photographed (media was more yellow in wells with potent cell growth).

The target of data set [1] is T1, IRE1a (Homo sapiens, UniProt O75460). Nature of the data set: In vitro FRET assay (IRE1a cleavage of XBP1 RNA probe). Type of data set: biochemical. More on the design: purchased SignalChem. Particulars: IRE1a 2 nM, tested as the salt named. As to the method: Selected compounds were serially diluted with DMSO in a non-binding black 384-well plate for a total of 15 ul in each well. 2 ul of the serially diluted compound or DMSO control were then added to new wells containing 98 ul of 1×CAB, for a total volume of 100 ul, 10 ul of which were then transferred to wells of a new plate. 5 ul of the diluted IRE1a was then added to each well. 5 ul of a […] XBP1 RNA probe was then added to each well.
T1 sequence (O75460 19-977): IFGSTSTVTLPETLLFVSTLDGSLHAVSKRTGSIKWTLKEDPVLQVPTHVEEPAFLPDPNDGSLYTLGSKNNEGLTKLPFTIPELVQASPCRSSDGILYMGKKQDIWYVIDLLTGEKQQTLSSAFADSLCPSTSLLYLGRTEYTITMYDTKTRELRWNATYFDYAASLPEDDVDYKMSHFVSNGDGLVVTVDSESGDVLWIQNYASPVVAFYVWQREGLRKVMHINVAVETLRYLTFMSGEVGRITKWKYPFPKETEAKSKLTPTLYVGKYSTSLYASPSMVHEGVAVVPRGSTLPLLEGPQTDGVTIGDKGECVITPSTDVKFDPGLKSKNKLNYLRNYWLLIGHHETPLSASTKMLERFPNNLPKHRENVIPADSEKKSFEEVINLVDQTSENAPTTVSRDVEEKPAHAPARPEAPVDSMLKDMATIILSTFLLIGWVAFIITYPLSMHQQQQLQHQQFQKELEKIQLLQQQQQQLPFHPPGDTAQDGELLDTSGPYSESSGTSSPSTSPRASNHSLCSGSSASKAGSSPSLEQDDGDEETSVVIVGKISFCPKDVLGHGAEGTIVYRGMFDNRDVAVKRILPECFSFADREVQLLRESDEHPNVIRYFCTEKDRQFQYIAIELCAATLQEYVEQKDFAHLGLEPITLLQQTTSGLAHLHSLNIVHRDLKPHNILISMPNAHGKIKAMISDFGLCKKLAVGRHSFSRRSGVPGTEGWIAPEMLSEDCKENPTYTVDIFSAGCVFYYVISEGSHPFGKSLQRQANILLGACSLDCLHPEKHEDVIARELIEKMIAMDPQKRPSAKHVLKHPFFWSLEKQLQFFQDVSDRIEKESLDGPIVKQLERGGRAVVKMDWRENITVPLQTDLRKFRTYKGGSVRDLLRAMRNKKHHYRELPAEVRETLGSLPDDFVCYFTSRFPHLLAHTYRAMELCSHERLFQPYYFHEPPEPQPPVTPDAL
Each probe contained a 5′ 6-FAM modification and a 3′ IOWA Black FQ modification.
A second FRET assay was performed to assess ATP-mediated inhibition. In this case, compounds and IRE1a were prepared and combined as discussed above, with the addition of ATP up to 1 mM final concentration. This mixture was incubated at room temperature for 60 minutes and then 5 ul of 400 nM XBP1 wildtype or mutant RNA probe was added.

For data set [2], the target named is T1, IRE1a. Nature of the data set: IRE1a Endoribonuclease Nanoluciferase Assay (XBP1 luciferase reporter in 293T cells). Type of data set: cell-based. Set-up: endogenous in cells; host or cells: 293T. Particulars: XBP1 nanoluciferase reporter in 293T cells, ER stressor; tested as the salt named. Background: Reporter assays use an easily measured gene product as a stand-in for the process of interest.

The nature of data set [3]: Bioavailability assay (mouse pharmacokinetic study). Type of data set: in vivo. Particulars: IV 1 mg/kg, PO 30 mg/kg (Compound A PO 10 mg/kg).
Data set [4] concerns the target T1, IRE1a. Kind of data set: IRE1a phosphorylation inhibition assay (immunoblot, tunicamycin-treated 293T cells). Type of data set: cell-based. Particulars: human 293T cells. More on the design: endogenous in cells; host or cells: 293T. As to the method:
Inhibition of ER stress-induced IRE1a phosphorylation and XBP1s protein accumulation in human 293T cells was assessed. Immunoblot analysis was performed in human 293T cells lysates obtained from cells after exposure to the chemical ER stress-inducing agent tunicamycin, and optional treatment with Compound C. Lysates were probed with antibodies recognizing IRE1a, phosphorylated IRE1a, XBP1, or TATA-binding protein (TBP). TBP was blotted as a protein loading control. […] 20 nM was sufficient to reduce XBP1s protein levels below the limit of detection in this assay.

Data set [5] can be described thus: Metabolic assays of N,N-dimethyl compounds. Type of data set: in vitro ADME. Particulars: data not shown.
In data set [6] the test system is IRE1a-mediated XBP1 splicing. Kind of data set: Assay for target engagement in pancreas and salivary gland (RT-qPCR of XBP1 splicing). Type of data set: in vivo. Particulars: mice, 30 mg/kg oral gavage, 6 hours, compared to control and Compound B. As for the experimental part: Mice (n=3 per group) were orally gavaged with 30 mg/kg vehicle control or IRE1 inhibitors dissolved in H2O. After 6 hours, mice were euthanized and pancreas and salivary gland tissues were isolated, snap frozen on dry ice, and used for subsequent RT-qPCR analysis of beta-actin, XBP1s and total XBP1. Gene expression was evaluated by quantitative PCR for XBP1s and total XBP1 transcripts using the 2^(−ΔCT) method for calculating normalized gene expression. Gene expression levels were normalized to Actb transcripts. XBP1 splicing is calculated as XBP1s expression divided by total XBP1 expression.

Another data set deals with IRE1a/XBP1 pathway. Kind of data set: Assay for inhibition of endogenous XBP1 splicing in 293T cells with tunicamycin. Type of data set: cell-based, human. The conditions noted are these: XBP1 splicing by qPCR. As to the method:
Gene expression was evaluated by quantitative PCR for XBP1s and total XBP1 transcripts using the 2^(−ΔCT) method for calculating normalized gene expression. Gene expression levels were normalized to ACTB transcripts. XBP1 splicing was calculated as actin-normalized XBP1s expression divided by actin-normalized total XBP1 expression.
Background: In qPCR the cycle at which signal appears reflects the starting amount.

As for `CCc1cc(-c2cnc(NS(=O)(=O)c3ccccc3Cl)cn2)cc2cnc(N[C@H]3CC[C@H](N)CC3)nc12` [Compound 25, N-(5-(2-(((1r,4r)-4-aminocyclohexyl)amino)-8-ethylquinazolin-6-yl)pyrazin-2-yl)-2-chlorobenzene-sulfonamide], the “% Growth at 0.185 uM” value in the data set with 293T cells (0.185 uM) was “D (D: > 75% to ≤ 100%)”. Besides, the “% Growth at 0.5556 uM” value with 293T cells (0.5556 uM) was “D (D: > 75% to ≤ 100%)”. The “% Growth at 1.667 uM” value in the data set with 293T cells (1.667 uM) is reported as “D (D: > 75% to ≤ 100%)”. In the data set on 293T cells (5 uM), the “% Growth at 5 uM” value is “D (D: > 75% to ≤ 100%)”. Further, at IRE1a [1], the IC50 was less than 5 nM. Also, on IRE1a [2], the EC50 is less than 5 nM.
With `CCc1cc(-c2ccc(NS(=O)(=O)c3ccccc3Cl)c(F)c2)cc2cnc(N[C@H]3CC[C@H](NC(=O)[C@@H](N)C(C)C)CC3)nc12` [Compound 58, (S)-2-amino-N-((1r,4S)-4-((6-(4-((2-chlorophenyl)sulfonamido)-3-fluorophenyl)-8-ethylquinazolin-2-yl)amino)cyclohexyl)-3-methylbutanamide], the 50% inhibitory concentration (IC50) on IRE1a [1] was 5 to 50 nM. Further, on IRE1a [2], the EC50 was less than 5 nM.
Turning to `CCc1cc(-c2ccc(NS(=O)(=O)c3ccccc3Cl)c(F)c2)cc2cnc(N[C@@H]3CC[C@H](N)[C@H](C)C3)nc12` [Compound 70, N-(4-(2-(((1R,3R,4S)-4-amino-3-methylcyclohexyl)amino)-8-ethylquinazolin-6-yl)-2-fluorophenyl)-2-chlorobenzene-sulfonamide], the IC50 on IRE1a [1] is less than 5 nM. In addition, the EC50 at IRE1a [2] was less than 5 nM.
For the compound `CCc1cc(-c2ccc(NS(=O)(=O)c3ccccc3Cl)c(F)c2)cc2cnc(N[C@H]3CCCNC3)nc12` [Compound 73, (S)-2-chloro-N-(4-(8-ethyl-2-(piperidin-3-ylamino)quinazolin-6-yl)-2-fluorophenyl) benzene-sulfonamide], the IC50 at IRE1a [1] was less than 5 nM. For the same compound, on IRE1a [2], the EC50 is less than 5 nM.
Consider `N[C@H]1CC[C@@H](Nc2ncc3cc(-c4ccc(NS(=O)(=O)c5ccccc5Cl)c(F)c4)ccc3n2)C1` [Compound 80], for which the IC50 at IRE1a [1] was less than 5 nM. For the same compound, the EC50 at IRE1a [2] lay in the range of 100 to 10000 nM.
The corresponding values for `CCc1cc(-c2ccc(NS(=O)(=O)c3ccccc3Cl)nc2C)cc2cnc(N[C@H]3CC[C@H](N(C)C)CC3)nc12` [Compound 91, 2-chloro-N-(5-(2-(((1r,4r)-4-(dimethylamino)cyclohexyl)amino)-8-ethylquinazolin-6-yl)-6-methylpyridin-2-yl)benzenesulfonamide] are less than 5 nM and less than 5 nM.
`CCc1cc(-c2ccc(NS(=O)(=O)c3ccccc3Cl)nc2C)cc2cnc(N[C@H]3CC[C@H](N)CC3)nc12` [Compound A, N-(5-(2-(((1r,4r)-4-aminocyclohexyl)amino)-8-ethylquinazolin-6-yl)-6-methylpyridin-2-yl)-2-chlorobenzenesulfonamide] gave an oral bioavailability in data set [3] of 4%.
As for `CCc1cc(-c2ccc(NS(=O)(=O)c3ccccc3Cl)nc2C)cc2cnc(NC3CCC(N(C)C)CC3)nc12` (stereo not shown) [Compound C], the “concentration sufficient to reduce XBP1s protein levels below the limit of detection” value at IRE1a [4] is 20 nM. Besides, on IRE1a [4] (pre-incubation with compound), the “ER stress-induced IRE1a phosphorylation” value is given as “strongly repressed” and the “accumulation of XBP1s protein” value is reported as “completely abrogated”. In addition, the metabolic fate entry in data set [5] is recorded as “removal of the methyl groups”. The “suppression of IRE1a-mediated XBP1 splicing in pancreas and salivary gland” value in data set [6] is “potently suppressed”. Also, in the data set on IRE1a/XBP1 pathway, the “shift in potency between Compound A and Compound C” value is “approximately 3.6 ×”.
With `CCc1cc(-c2ccc(NS(=O)(=O)c3ccccc3Cl)nc2OC)cc2cnc(NC3CCC(N(C)C)CC3)nc12` (stereo not shown) [Compound D], the metabolic fate entry in data set [5] is on record as “removal of the methyl groups”. Moreover, the “suppression of IRE1a-mediated XBP1 splicing in pancreas and salivary gland” value in data set [6] was “potently suppressed”.

The IC50 is the concentration that gives 50% inhibition. As a reminder, the EC50 is the concentration needed to bring the measured effect to its halfway point.
